We go through four compounds from patent publication US11166949B2, “NURR1 activation in the treatment of metabolic disorders and as an exercise mimetic” (The Board of Regents of the University of Texas System, priority 2016, dated 2021).

Structures are written as SMILES. “Also recorded” adds a separate entry of the source.

The conditions of series [1]: cited from earlier work.
Another series has as its system mice on HFD. Kind of series: Glucose tolerance test and insulin tolerance test. Type of series: in vivo. The protocol:
Glucose uptake and insulin tolerance. Glucose tolerance test and insulin tolerance test were performed as previously described. For glucose tolerance test, mice were fasted for 6 hr and injected intraperitoneally with a glucose solution (0.15 g/ml, 158968 from Sigma-Aldrich, St. Louis, Mo.) at 1.5 g/kg body weight. Blood glucose concentrations were measured before and 15, 30, 60 and 90 min after glucose injection. For insulin tolerance test, mice […] for 6 hours were injected intraperitoneally with insulin (Human insulin 19278 from Sigma-Aldrich, St. Louis, Mo.) at 1.0 U/kg body weight. Blood glucose concentrations were measured before and 15, 30, 60 and 90 min after insulin injection.

The target of a further series is Nurr1 (Homo sapiens, UniProt P43354). As to conditions: cited from earlier work.
In series [2] the test system is WT mice on normal chow and HFD. Kind of series: Nurr1 agonist treatment of WT mice on normal chow and HFD: weight gain, food intake, body composition, adipose histology. The series is classed as in vivo. Conditions: for weight gain: WT mice on normal chow. The protocol: Animals. Animals were housed in a pathogen free barrier facility with a 12 hour light/dark cycle and maintained on standard chow (2916 Teklad Global). The Nurr1 transcript was amplified from Invitrogen library with Nurr1-specific primers. Nurr1 was cloned into a plasmid containing the human skeletal muscle actin promoter and human GH (hGH) poly(A) signal. Nurr1 transgenic mice (referred as Nurr1-mTg) were backcrossed with C57/BL6J mice for more than four generations. C57BL/6J, ob/ob and db/db mice were obtained from Jackson Laboratories. Male mice were used in all experiments. For HFD (60% fat calories; D12492, Research Diet), mice were fed from the age of 5 weeks to the indicated times. Tissues were taken in the fed state except when otherwise mentioned. Drug treatments. […] Isoxazolo-pyridinone 7e (IP7e) was purchased from Millipore and dissolved in Tween 80 in a 10× stock solution. To obtain the final concentration (1×; 10 mg/kg) IP7e was dissolved in saline solution (0.9% NaCl). IP7e treatment by gavage was performed once a day. Control animals received the Tween 80 dissolved saline solution (0.9% NaCl, vehicle). Histology. WAT, BAT and liver were isolated and fixed in 4% paraformaldehyde (PFA) and processed for H&E staining. For oil red O staining, liver tissues were fixed in 4% PFA overnight, incubated in 12% sucrose for 12 hours then in 18% sucrose overnight before being cryoembedded and sectioned by the UT Southwestern Histology Core Facility. For skeletal muscle fiber analysis, tissues were frozen in liquid-nitrogen precooled isopentane, and 8 μm sections were used for H&E and fiber type staining. Metabolic chambers and whole-body composition analysis. Metabolic phenotyping of WT and Nurr1-mTg mice on HFD was performed using TSE metabolic chamber analysis by the Mouse Metabolic Phenotyping Core Facility at University of Texas Southwestern Medical Center. Thirteen week old mice on HFD were placed in TSE metabolic chambers for an initial 5 days acclimation period, followed by a 4.5 days experimental period with data collection. Whole-body composition parameters were measured by magnetic resonance imaging (MRI) using a Bruker Minispec mq10 system.

Series [3] has as its system ob/ob mice. The experiment in a line: AQ treatment of leptin deficient (ob/ob) mice: body weight, food intake. Type of series: in vivo. The protocol: Animals. Animals were housed in a pathogen free barrier facility with a 12 hour light/dark cycle and maintained on standard chow (2916 Teklad Global). The Nurr1 transcript was amplified from Invitrogen library with Nurr1-specific primers. Nurr1 was cloned into a plasmid containing the human skeletal muscle actin promoter and human GH (hGH) poly(A) signal. Nurr1 transgenic mice (referred as Nurr1-mTg) were backcrossed with C57/BL6J mice for more than four generations. C57BL/6J, ob/ob and db/db mice were obtained from Jackson Laboratories. Male mice were used in all experiments. For HFD (60% fat calories; D12492, Research Diet), mice were fed from the age of 5 weeks to the indicated times. Tissues were taken in the fed state except when otherwise mentioned. Drug treatments. […] Isoxazolo-pyridinone 7e (IP7e) was purchased from Millipore and dissolved in Tween 80 in a 10× stock solution. To obtain the final concentration (1×; 10 mg/kg) IP7e was dissolved in saline solution (0.9% NaCl). IP7e treatment by gavage was performed once a day. Control animals received the Tween 80 dissolved saline solution (0.9% NaCl, vehicle).

The test system of series [4] is chloroquine-resistant Plasmodium falciparum. As to conditions: chloroquine-resistant Plasmodium falciparum malaria infections; cited from earlier work.
In a further series the test system is WT mice on HFD. Kind of series: Liver TRIG accumulation / hepatic steatosis in response to HFD. The series is classed as in vivo. Conditions: for hepatic steatosis: WT mice on HFD. Here is the method: (§1) Histology. WAT, BAT and liver were isolated and fixed in 4% paraformaldehyde (PFA) and processed for H&E staining. For oil red O staining, liver tissues were fixed in 4% PFA overnight, incubated in 12% sucrose for 12 hours then in 18% sucrose overnight before being cryoembedded and sectioned by the UT Southwestern Histology Core Facility. For skeletal muscle fiber analysis, tissues were frozen in liquid-nitrogen precooled isopentane, and 8 μm sections were used for H&E and fiber type staining. Plasma and tissue chemistry. Blood was collected using a 1 ml syringe coated in 0.5 M K2EDTA and serum collected by centrifugation for 20 min at 1000×g. Insulin and leptin levels were measured by ELISA. Serum triglycerides levels were measured using the Ortho Vitros 250 chemistry system. To measure triglyceride in the liver and skeletal muscle, tissue specimens were frozen immediately after isolation and pulverized in liquid nitrogen with a cell crusher. Serum and tissue triglyceride levels were measured by Mouse Metabolic Phenotyping Core Facility at University of Texas Southwestern Medical Center.

For series [5] the following is noted: mouse, in vivo.
Series [6] in a line: Metabolic cages (energy expenditure). Conditions: WT-HFD-AQ compared to WT mice, normalized to lean mass. Type of series: in vivo.
Series [7] relates to ob/ob mice. The experiment in a line: Liver TRIG accumulation in ob/ob mice. Type of series: in vivo. Here is the method: as §1
Series [8] in a line: Serum insulin and triglyceride levels. As to conditions: WT-HFD-AQ vs WT-HFD mice, after 10 weeks on HFD, postprandial. Type of series: in vivo. Here is the method:
Plasma and tissue chemistry. Blood was collected using a 1 ml syringe coated in 0.5 M K2EDTA and serum collected by centrifugation for 20 min at 1000×g. Insulin and leptin levels were measured by ELISA. Serum triglycerides levels were measured using the Ortho Vitros 250 chemistry system. To measure triglyceride in the liver and skeletal muscle, tissue specimens were frozen immediately after isolation and pulverized in liquid nitrogen with a cell crusher. Serum and tissue triglyceride levels were measured by Mouse Metabolic Phenotyping Core Facility at University of Texas Southwestern Medical Center.

The next series relates to NF-κB. Conditions: NF-κB-GFP reporter cells; cited from earlier work.
The test system of series [9] is dopaminergic neurons in the substantia nigra pars compacta. As to conditions: MPTPp-treated mice, cited from earlier work.
The next series relates to BV-2 microglia. As to conditions: cited from earlier work.
The mark [10] stands for this setting: WT-HFD-AQ compared to WT-HFD mice.
The mark [11] stands for this setting: ob/ob mice on normal chow, AQ in drinking water, 4 weeks.

Sequence of Nurr1 (P43354 whole entry): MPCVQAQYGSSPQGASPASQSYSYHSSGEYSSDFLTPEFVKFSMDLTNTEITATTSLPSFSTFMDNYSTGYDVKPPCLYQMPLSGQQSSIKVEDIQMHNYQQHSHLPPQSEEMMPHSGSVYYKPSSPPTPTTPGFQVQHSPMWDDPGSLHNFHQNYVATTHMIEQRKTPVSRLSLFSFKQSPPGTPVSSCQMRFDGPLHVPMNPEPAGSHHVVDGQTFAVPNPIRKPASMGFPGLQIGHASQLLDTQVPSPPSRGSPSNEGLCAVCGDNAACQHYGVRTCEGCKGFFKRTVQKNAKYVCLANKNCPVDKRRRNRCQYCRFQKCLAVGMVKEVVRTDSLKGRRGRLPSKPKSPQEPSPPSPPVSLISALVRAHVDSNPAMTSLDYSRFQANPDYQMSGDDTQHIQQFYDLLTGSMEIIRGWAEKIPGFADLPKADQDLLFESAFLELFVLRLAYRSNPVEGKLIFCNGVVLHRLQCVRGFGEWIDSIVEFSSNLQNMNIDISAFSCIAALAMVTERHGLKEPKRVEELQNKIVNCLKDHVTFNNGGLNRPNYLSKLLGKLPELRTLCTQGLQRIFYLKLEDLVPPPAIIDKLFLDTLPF

As to `CCN(CCO)CCCC(C)Nc1ccnc2cc(Cl)ccc12` (stereo not shown) [hydroxy-chloroquine], the glucose level entry in [1] (high doses, individuals with type 2 diabetes without autoimmune conditions, two clinical trials) was “lowers glucose level”. In [1] (patients with autoimmune inflammatory arthritis, three clinical observational studies), the “risk of developing diabetes” value is reported as “lower risk”.

In the case of `CCN(CC)Cc1cc(Nc2ccnc3cc(Cl)ccc23)ccc1O` [AQ, amodiaquine], in the series with mice on HFD (AQ), the glucose tolerance entry is given as “dramatic improvement” and the insulin tolerance entry was “dramatic improvement”. Also, at Nurr1 (among three compounds sharing a 4-amino-7-chloroquinoline scaffold), the Nurr1 activation levels entry is recorded as “highest activation levels”. Besides, the “obesity on HFD” value in [2] (WT mice on HFD, AQ in drinking water ad libitum, 10 weeks) is “completely prevented obesity; also recorded: confers resistance to obesity”. Besides, the body weights entry in series [2] (WT mice on HFD, AQ in drinking water, 10 weeks) is listed as “comparable to mice on normal chow”. Besides, the “food consumption / food intake” value in [2] (WT mice on HFD, AQ vs control mice on HFD) is “no difference; also recorded: does not affect”. Further, the weight gain result in [2] (AQ in drinking water ad libitum, 10 weeks) is “no effect”. For the same compound, in [2] (setting [10]), the “adipocyte size in white adipose tissue” value is listed as “decreases”, the fat mass entry is listed as “significant decrease; also recorded: decreases” and the lean mass composition entry was “increase”. In the series on ob/ob mice [3] (setting [11]), the body weight result is on record as “lose weight” and the weight gain entry is “resistant to weight gain”. In addition, in the series with ob/ob mice [3] (ob/ob mice, AQ 4 weeks), the “food intake (chow consumed)” value is reported as “comparable quantities; also recorded: does not affect”. Also, in series [4], the “efficacy compared with chloroquine” value is reported as “more effective than chloroquine”. The hepatic steatosis entry in the series with WT mice on HFD (AQ) was “resistant to the hepatic steatosis; also recorded: prevents hepatic steatosis”. Moreover, the “decrease in hepatic TRIG levels” value with WT mice on HFD (WT-HFD-AQ mice vs WT on HFD) came out at 50%. The toxic effects result in series [5] is “no toxic effects”. In series [6], the CO2 production entry was “significant increase” and the O2 consumption entry is on record as “significant increase”. The “decrease in Tg levels (liver)” value with ob/ob mice [7] (ob/ob mice treated with AQ compared to non treated mice, 4 weeks) is on record as 66%. For the same compound, in the series with ob/ob mice [7] (ob/ob mice treated with AQ, histological and biochemical analysis), the “liver TRIG accumulation / hepatic steatosis” value is listed as “significant decrease; also recorded: recovers hepatic steatosis ob/ob mice to normal levels”. Also, in series [8], the serum insulin levels entry is “significantly lower” and the serum triglyceride levels entry is reported as “significantly lower”.

For the compound `Clc1ccc(C(c2c[nH]c3ccccc23)c2c[nH]c3ccccc23)cc1` [C-DIM12, 1,1-bis(3′-indolyl)-1-(p-chlorophenyl) methane], the NF-κB activation result in the series with NF-κB is listed as “decreased”. For the same compound, the neuroprotective activity result in [9] (daily oral gavage) is reported as “greatest neuroprotective activity”. Further, the “suppressing activation of microglia and astrocytes” value in series [9] is listed as “most potent compound”. In addition, the “LPS-induced expression of NF-κB-regulated genes (NOS2, IL-6, CCL2)” value with BV-2 microglia was “inhibited”.

In the case of `COCCOCc1ccc(-c2cc3onc(-c4ccccc4)c3c(=O)n2C)cc1` [IP7e, Isoxazolo-pyridinone 7e], the “glucose handling (glucose tolerance)” value in the series with mice on HFD (IP7e) was “improvement”. Also, the Nurr1-dependent transcriptional activity entry at Nurr1 is reported as “potent activator”. Besides, the “obesity on HFD” value in [2] (WT mice on HFD, IP7e 10 mg/kg oral gavage once a day, 5 weeks) is given as “prevented obesity; also recorded: confers resistance to obesity”. Moreover, the “food consumption / food intake” value was “no difference” in series [2] (WT mice on HFD, IP7e vs control mice on HFD) and “does not affect” in [2] (WT mice on HFD, IP7e vs control mice on HFD, listed as IP7). The weight gain entry in [2] (IP7e 10 mg/kg oral gavage once a day, 5 weeks) was “no impact”. Also, the hepatic steatosis result in the series on WT mice on HFD (IP7e) is listed as “resistant to the hepatic steatosis; also recorded: prevents hepatic steatosis”. The “decrease in hepatic TRIG levels” value with WT mice on HFD (WT-HFD-IP7e mice) was 48%.
